Results published in patent publication US20230103552A1, “SYSTEMS AND PHARMACEUTICAL COMPOSITIONS FOR TREATMENT BY DIRECT INJECTION OF A TARGETED POPULATION OF CELLS” (Privo Technologies, Inc., priority 2020, published 2023).

Tests used:
[1] = tested on: mice grafted with cancer cells; experiment: In-vivo mice study, tumor volume vs time
Description: FIG. 6 provides a graph of change in Mice tumor volume vs time involving different treatments. The black curve corresponds to a control untreated tumor, the gray curve corresponds to intratumoreal injection with placebo particles containing no drug, the green curve corresponds to intravenous injection with drug, the red curve corresponds to intratumoreal injection of free drug, and the blue curve corresponds to injection with drug-encapsulated hydrogel PRV311.
Here, the PRV311 composition included microparticles loaded with the anti-tumor cytokine IL-12. […] It is hypothesized that the injected PRV311's polymeric mesh causes microparticles containing PRV311 to be retained locally, increasing efficacy.

[2] = tested on: established colorectal (MC32a) and pancreatic (Panc02) tumors; details: weekly i.t. injections; cited from earlier work
[3] = mouse, in vivo; cited from earlier work

IL-12: potent antitumor cytokine
tumor growth ([1]; intratumoral injection): merely delayed tumor growth | tumor growth ([1]; intravenous injection): no significant change in tumor growth rate | established tumors eradicated [2]: ≤ 10% | local IL-12 retention [3]: 1 to 2 days
